“Also recorded” adds a separate entry of the source. Counter-ions that a name gives are not always drawn.
Experiments:
CD-1 mice [1] = test: Mouse dose response study: protection against doxorubicin-associated cardiotoxicity, plasma cTnI ELISA; format: in vivo; details: 25 mg/kg doxorubicin ip, 0.0001, 0.001, 0.01, 0.1 or 1.0 mg/kg TK-115339 ip 3 hours before and after doxorubicin, plasma on day 5
Description: The aim of this study was to establish the dose response for the protection afforded by TK-115339 against doxorubicin-associated cardiotoxicity.
Eight to ten-week-old male CD-1 male mice (Charles River, Hollister, Calif.) weighing 30-35 g were housed in a climate-controlled environment, the light was controlled (light:dark, 12:12), and the animals were given food and water ad libitum. The animals (12 animals/treatment group) were dosed ip (200 μl volume) on day 1 with 25 mg/kg doxorubicin or 25 mg/kg doxorubicin plus 0.0001, 0.001, 0.01, 0.1 or 1.0 mg/kg TK-115339 3 hours before, and after, the doxorubicin treatment. […]
On days 2 and 3 the mice received a single ip injection of either saline (doxorubicin alone group) or […] (dose ranging experimental groups). […] The plasma samples were analyzed for cTnI using a commercial ELISA test according to the manufacture's recommendations (Life Diagnostics, Inc., Cat. No. 2010-1-HSP).
(§1) Data was analyzed using SPSS software (SPSS Inc., Chicago, Ill.). […]
Representative of the data shown in FIG. 2, mice (12 animals/treatment group) were dosed ip on Day 1 with 25 mg/kg doxorubicin or 25 mg/kg doxorubicin plus 0.0001, 0.001, 0.01, 0.1 or 1.0 mg/kg TK-115339 3 hours before, and after, the doxorubicin treatment. […] The plasma samples were analyzed for cTnI using a commercial ELISA test.

[2] = system: CCRF-CEM human cancer cells; test: Cell culture study: interference with doxorubicin activity, alamarBlue cell viability; format: cell-based; details: doxorubicin 0.01, 0.1, 1.0 μM with TK-115339 0.01, 0.1, 1.0 μM, 72 hour incubation
Description: The aim of this study was to examine whether or not a representative nitrone test article, TK-115339, interfered with the desired activity of doxorubicin in vitro.
The tumor cell line for the cell culture study was CCRF-CEM (Human T-ALL, CCL-119) from ATCC, and cells were cultured in accordance with the product information sheets replacing 75 cm^2 culture flasks with 56.7 cm^2 Petri dishes and adding 1% penicillin-streptomycin solution and 1% GlutaMAX™ to the culture medium. The compound, TK-115339, was dissolved in DMSO then diluted to obtain initial working solutions of 1, 10 and 100 μM. […]
Cells were thawed according to ATCC protocol and plated in 10 mL of sterile filtered growth medium. […] Doxorubicin was evaluated at concentrations of 0.01, 0.1 and 1.0 μM alone or in combination with TK-115339 at concentrations of 0.01, 0.1 and 1.0 μM. […]
At the end of incubation, cell viability was determined by optical absorbance of alamarBlue® at λ=570 and 600 nm in accordance using a standard protocol provided by the vendor, Biosource. Data was analyzed using SPSS 14.0 software (SPSS Inc., Chicago, Ill.). Statistical significance of the differences between experimental groups was calculated by using one-way ANOVA followed by a Bonferroni post-hoc analysis.
Cells were prepared and tested as described above. […] For each condition, 12 replicates were analyzed. […]

CD-1 mice [3] = test: Mouse study: protection against doxorubicin-induced cardiac damage, plasma cardiac troponin I (cTnI) ELISA; format: in vivo; details: 25 mg/kg doxorubicin ip, 1.0 or 3.0 mg/kg TK-115339 ip 3 hours before and after doxorubicin, single ip on days 2-4, plasma on day 5 (96 hours)
Text: To this end, a representative nitrone test article (TK-115339) was examined for its ability to mitigate one aspect of doxorubicin-induced toxicity, cardiac damage, in CD-1 mice as determined by concentration of cardiac troponin I (cTnI) in animal plasma (Li et al., Circulation, 113:535-43 (2006) and Hou et al., J Lab Clin Med., 146: 299-303 (2005). Doxorubicin was purchased from Xinchem Corporation (China). TK-115339 was synthesized at the University of California, Santa Cruz. […]
On days 2, 3 and 4, the mice received a single ip injection of either 1 or 3 mg/kg of TK-115339. […] The plasma samples were analyzed for cTnI using a commercial ELISA test according to the manufacture's recommendations (Life Diagnostics, Inc., Cat. No. 2010-1-HSP).
as §1
Representative of the data shown in FIG. 1, mice (10 animals/treatment group) were dosed ip on Day 1 with vehicle (pH 7.4 buffered saline), 25 mg/kg doxorubicin ip or 25 mg/kg doxorubicin ip plus 1.0 or 3.0 mg/kg TK-115339 3 hours before, and after, the doxorubicin treatment. […] The plasma samples were analyzed for cTnI using a commercial ELISA test for troponin I. Boxplots of troponin findings from the study are provided in FIG. 1.

[4] = cited from earlier work

Row | Compound | dose response of protection from doxorubicin-induced cardiac damage (plasma cardiac troponin) (CD-1 mice [1]) | interference with tumor cell anti-growth activity (cytotoxicity) of doxorubicin, cell viability [2] | protection from doxorubicin-induced cardiac damage estimated by plasma cardiac troponin I (cTnI) (CD-1 mice [3]) | solubility in methanol ([4]; methanol) | solubility in water ([4]; water)
1 | CC(C)(C)[N+]([O-])=Cc1ccc(SSc2ccc(C=[N+]([O-])C(C)(C)C)cc2)cc1 [TK-115339, symmetrical disulfide conjugate of alpha-(4-sulfanylphenyl)-N-tert-butylnitrone] | dose-response for the protection; also recorded: dose proportional | does not interfere with the toxicity of doxorubicin; also recorded: does not interfere with the tumor cell anti-growth activity of doxorubicin | mitigate one aspect of doxorubicin-induced toxicity, cardiac damage in CD-1 mice; also recorded: protects mice from doxorubicin-induced cardiac damage | – | –
2 | COc1cccc2c1C(=O)c1c(O)c3c(c(O)c1C2=O)C[C@@](O)(C(=O)CO)C[C@@H]3O[C@H]1C[C@H](N)[C@H](O)[C@H](C)O1 [Doxorubicin hydrochloride, 5,12-naphthacenedione,10-[(3-amino-2,3,6-trideoxy-α-L-Iyxo-hexopyranosyl)oxy]-7,8,9,10-tetrahydro-6,8,11-trihydroxy-8-(hydroxyacetyl)-1-methoxy-, hydrochloride, (8S-cis)-(9Cl)] | – | – | – | slightly soluble in methanol | soluble in water

From patent US9061038B2, “Doxorubicin adjuvants to reduce toxicity and methods for using the same” (Tosk, Incorporated, priority 2008, dated 2015)
